In ChEMBL document CHEMBL1268866, “Factor Xa inhibitors: next-generation antithrombotic agents” (J Med Chem, 2010):
One block for each molecule: values may come before it.

Legend:
[1] = Oral bioavailability in rat; assay type: ADME, organism-based; conditions: in vivo
[2] = Half life in rat; assay type: ADME, organism-based; conditions: in vivo
[3] = in vivo; conditions: dog
[4] = in vivo; conditions: dog; remark: listed apart in the source
[5] = in vivo; conditions: dog, po
[6] = in vivo; conditions: dog; remark: listed apart in the source
[7] = Oral bioavailability in monkey; conditions: in vivo
[8] = Clearance in monkey; assay type: ADME, organism-based, Macaca mulatta; conditions: rhesus monkey, in vivo
[9] = Volume of distribution at steady state in monkey; assay type: ADME, organism-based, Macaca mulatta; conditions: rhesus monkey, in vivo; read-out: Vdss
[10] = Drug excretion in human feces; assay type: ADME, tissue-based; conditions: faeces, read-out: Activity
[11] = species: Rattus norvegicus; experiment: (§1) Clearance in rat; assay type: ADME, organism-based; conditions: in vivo
[12] = Volume of distribution at steady state in rat; assay type: ADME, organism-based; conditions: in vivo, read-out: Vdss
[13] = Oral bioavailability in chimpanzee; assay type: ADME, organism-based, Pan troglodytes; conditions: in vivo
[14] = Volume of distribution in chimpanzee; assay type: ADME, organism-based, Pan troglodytes; conditions: in vivo
[15] = Half life in po dosed human; assay type: ADME, organism-based; conditions: in vivo
[16] = Drug excretion in human urine; assay type: ADME, tissue-based; conditions: read-out: Activity
[17] = Half life in human; assay type: ADME, organism-based; conditions: in vivo
[18] = Clearance in human; assay type: ADME, organism-based; conditions: in vivo
[19] = Drug excretion in rat urine; assay type: ADME; conditions: read-out: Activity
[20] = Tmax in po dosed human; assay type: ADME, organism-based; conditions: in vivo
[21] = Drug excretion in dog urine; assay type: ADME, Canis lupus familiaris; conditions: read-out: Activity
[22] = Drug excretion in dog feces; assay type: ADME, tissue-based, Canis lupus familiaris; conditions: faeces, read-out: Activity
[23] = Drug excretion in rat feces; assay type: ADME, tissue-based; conditions: faeces, read-out: Activity
[24] = as §1; assay type: ADME, organism-based; conditions: in vivo
[25] = species: Canis familiaris; experiment: Plasma concentration in dog; assay type: ADME, organism-based, Canis lupus familiaris; conditions: in vivo
[26] = Half life in monkey; assay type: ADME, organism-based, Macaca mulatta; conditions: rhesus monkey, in vivo

SMILES: Cc1cc(C(=O)Nc2ccc(-n3ccnc3CN(C)C)cc2F)n(-c2ccc3cc(Cl)ccc3c2)n1
- bioavailability [1]: 35%
- half-life [2]: 7.2 h

SMILES: O=C(Nc1ccc(-n2ccccc2=O)cn1)[C@H]1C[C@](O)(c2ccc(F)cc2F)CN1C(=O)Nc1ccc(Cl)cc1
- half-life [3]: 12.6 h

SMILES: CN(C)Cc1nccn1-c1ccc(NC(=O)c2cc(C(F)(F)F)nn2-c2ccc3onc(N)c3c2)cc1
- half-life [3]: 1.6 h
- Vd [4]: 4.5 L/kg
- bioavailability [5]: 16%
- clearance [6]: 41.7 mL/min/kg

SMILES: NCc1ccccc1-n1nc(C(F)(F)F)cc1C(=O)Nc1ccc(-c2ccccc2S(N)(=O)=O)cc1F
- bioavailability [5]: 100%

SMILES: CCCCOC(=O)COc1cc(-c2ccccc2S(C)(=O)=O)ccc1CCNS(=O)(=O)c1cc(C(=N)NO)ccc1O
- bioavailability [1]: 15%

SMILES: CN(C)Cc1ccccc1-c1ccc(C(=O)Nc2ccc(Cl)cc2C(=O)Nc2ccc(Cl)cn2)cc1
- bioavailability [1]: 100%

SMILES: CN(C)C(=N)c1ccc(NC(=O)c2cc(C(F)(F)F)nn2-c2cc3ccccc3cc2F)c(F)c1
- bioavailability [1]: 47%

SMILES: Nc1nccc2ccc(CN3CC[C@H](NS(=O)(=O)c4cc5ncccc5s4)C3=O)cc12
- concentration [25]: 2700 nM
- bioavailability [5]: 33%

SMILES: CC(=N)N1CCC(Oc2ccc(N(Cc3ccc4ccc(C(=N)N)cc4c3)S(=O)(=O)CC(=O)O)cc2)CC1 [YM-60828]
- bioavailability [7]: 20%

SMILES: CN1CCC(N2CCN(C(=O)[C@H](NC(=O)c3ccc4cc[nH]c4c3)c3ccccc3)CC2)CC1 [LY-517717]
- bioavailability [1]: 25%
- half-life [2]: 7 h
- half-life [3]: 7 h
- bioavailability [5]: 25%

SMILES: Cc1cc2cc(N=C(NC#N)N[C@H]3CCCCN(CC(=O)N4CCCC4)C3=O)ccc2o1
- bioavailability [1]: 50%

Second part, the molecule after the results:

- half-life [3]: 0.6 h
- bioavailability [5]: 46%
SMILES: O=C1CN(S(=O)(=O)c2cc3ccc(Cl)cc3s2)CCN1Cc1cc2c[nH]ccc-2n1

- bioavailability [7]: 52.5%
- clearance [8]: 11.8 mL/min/kg
- Vd [9]: 0.579 L/kg
SMILES: O=C([C@H](O)CS(=O)(=O)c1ccc2cc(Cl)ccc2c1)N1CCC(N2CCCNC2=O)CC1 [LETAXABAN]

- dose excreted [10]: 47%
- clearance [11]: 4.33 mL/min/kg
- Vd [12]: 0.31 L/kg
- bioavailability [13]: 51%
- Vd [14]: 0.17 L/kg
- half-life [15]: 8 h
- Vd [4]: 0.2 L/kg
- dose excreted [16]: 25%
- bioavailability [5]: > 50%
- clearance [6]: 0.333 mL/min/kg
SMILES: COc1ccc(-n2nc(C(N)=O)c3c2C(=O)N(c2ccc(N4CCCCC4=O)cc2)CC3)cc1 [APIXABAN]

- bioavailability [7]: 46%
SMILES: Cc1ncc2n1C(=O)N(C1CCN(C(=O)CCS(=O)(=O)c3ccc4cc(Cl)ccc4c3)CC1)C2

- half-life [17]: > 20 h
- clearance [18]: 120 mL/min
SMILES: CC(=N)N1CC[C@H](Oc2ccc([C@H](Cc3ccc4ccc(C(=N)N)cc4c3)C(=O)O)cc2)C1 [DX-9065A]

- dose excreted [19]: 25%
- bioavailability [1]: 57%
- Vd [12]: 0.3 L/kg
- Tmax [20]: 1.3 h
- half-life [2]: 1.2 h
- dose excreted [21]: 52%
- dose excreted [22]: 43%
- half-life [3]: 0.9 h
- dose excreted [23]: 67%
- Vd [4]: 0.4 L/kg
- bioavailability [5]: 60%
- clearance [6]: 5 mL/min/kg
SMILES: O=C(NC[C@H]1CN(c2ccc(N3CCOCC3=O)cc2)C(=O)O1)c1ccc(Cl)s1 [RIVAROXABAN]

- clearance [24]: 13 mL/min/kg
- bioavailability [1]: 52%
- Vd [12]: 0.6 L/kg
- half-life [2]: 1 h
SMILES: CN(C)Cc1nccn1-c1ccc(N2CC[C@H](NS(=O)(=O)/C=C/c3ccc(Cl)s3)C2=O)c(F)c1

- bioavailability [1]: 82%
- Vd [4]: 0.87 L/kg
- bioavailability [5]: 41%
- clearance [6]: 2.5 mL/min/kg
SMILES: CO[C@@H]1C[C@H](C(=O)Nc2ccc(-n3ccccc3=O)cc2F)N(C(=O)Nc2ccc(Cl)cc2)C1 [ERIBAXABAN]

- bioavailability [1]: 28%
SMILES: CO[C@@H]1C[C@H](C(=O)Nc2ccc(-c3ccccc3S(C)(=O)=O)cc2F)N(C(=O)Nc2ccc(Cl)cc2)C1

- half-life [3]: 0.867 h
- bioavailability [5]: 97%
SMILES: O=C1CN(S(=O)(=O)/C=C/c2ccc(Cl)s2)CCN1Cc1cc2c[nH]ccc-2n1

- bioavailability [1]: 27%
SMILES: CS(=O)(=O)c1cc(F)ccc1N1CCN(C(=O)[C@H](NC(=O)c2ccc3ccnc(N)c3c2)c2ccccc2)CC1

- bioavailability [1]: 60%
- bioavailability [7]: 80%
- clearance [8]: 4.17 mL/min/kg
- bioavailability [5]: 60%
SMILES: COC[C@@H](NC(=O)c1ccc(Cl)s1)C(=O)Nc1ccc(N2CCOCC2=O)c(C)c1

- bioavailability [7]: 50%
SMILES: CN1CCc2nc(C(=O)N[C@@H]3C[C@@H](C(=O)N(C)C)CC[C@@H]3NC(=O)C(=O)Nc3ccc(Cl)cn3)sc2C1 [EDOXABAN]

- bioavailability [1]: 17%
SMILES: CS(=O)(=O)c1ccccc1-c1ccc(NC(=O)[C@H]2C[C@@H](O)CN2C(=O)Nc2ccc(Cl)cc2)c(F)c1

- clearance [8]: 12.4 mL/min/kg
- Vd [9]: 1.49 L/kg
- half-life [26]: 1.5 h
SMILES: CN1CCc2nc(C(=O)N[C@@H]3C[C@@H](C(=O)N(C)C)CC[C@@H]3NC(=O)c3cc4cc(Cl)ccc4[nH]3)sc2C1

- bioavailability [1]: 100%
- Vd [12]: 33 L/kg
SMILES: CN(C)Cc1ccc(C(=O)Nc2ccc(Cl)cc2C(=O)Nc2ccc(Cl)cn2)cc1
